The values that follow come from paper PMC6270288, “Yellow Pigments, Fomitellanols A and B, and Drimane Sesquiterpenoids, Cryptoporic Acids P and Q, from Fomitella fraxinea and Their Inhibitory Activity against COX and 5-LO” (Molecules, 2013).

The target in one assay is T1, COX-2 (Ovis aries, UniProt P79208).
T1 construct: isolated from sheep placenta, purity 70%; purchased Cayman Chemical Company; host or cells: sheep placenta (tissue isolate)
T1 sequence (P79208 17-603): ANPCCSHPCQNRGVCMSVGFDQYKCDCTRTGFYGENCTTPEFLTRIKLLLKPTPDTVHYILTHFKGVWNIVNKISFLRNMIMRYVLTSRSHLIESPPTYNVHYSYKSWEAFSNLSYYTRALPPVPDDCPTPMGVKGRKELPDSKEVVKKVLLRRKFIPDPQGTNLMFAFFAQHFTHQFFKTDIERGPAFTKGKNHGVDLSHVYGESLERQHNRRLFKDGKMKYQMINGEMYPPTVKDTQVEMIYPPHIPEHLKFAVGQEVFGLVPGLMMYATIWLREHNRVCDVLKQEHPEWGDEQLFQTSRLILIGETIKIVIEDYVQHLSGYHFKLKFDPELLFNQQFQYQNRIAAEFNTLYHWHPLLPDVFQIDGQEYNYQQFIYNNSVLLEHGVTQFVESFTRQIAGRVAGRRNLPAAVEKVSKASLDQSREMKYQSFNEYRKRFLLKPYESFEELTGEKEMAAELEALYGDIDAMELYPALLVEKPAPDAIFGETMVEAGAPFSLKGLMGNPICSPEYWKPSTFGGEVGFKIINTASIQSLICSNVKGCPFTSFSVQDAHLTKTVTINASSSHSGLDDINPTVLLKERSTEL
The assay can be described thus: COX-2-catalyzed prostaglandin biosynthesis assay in vitro. It is filed as biochemical, sheep. Particulars: for inhibition at 10 µg/mL: 10 μg/mL, COX-2 from sheep placenta. The procedure:
(§1) Experiments were performed according to Futaki et al. with modification. In brief, 200 U of COX-1 or COX-2 enzyme was suspended in 0.1 M Tris-HCl buffer (PH 7.5) containing hematin (1 μM) and phenol (2 mM), as co-factors. The reaction medium was preincubated with sample for 2 min at 37 °C, and 51.4 μM of […] arachidonic acid (Sigma, St. Louis, MO, USA) was added and incubated for 2 min at 37 °C. To terminate the reaction and extract PGE2, 400 μL of n-hexane/EtOAc (2:1, V/V) was added to the reaction mixture and the preparation was centrifuged at 2,000 rpm for 1 min. The organic solvent phase was discarded. The extraction procedure was repeated twice, then 50 μL EtOH was added to the aqueous phase, and the preparation was at 2,000 rpm for 1 min. The amount of PGE2 was measured by radioimmunoassay using a liquid scintillation counter. COX-1 (EC1.14.99.1, isolated from ram seminal vesicles; Cayman Chemical Company, Ann Arbor, MI, USA) and COX-2 (isolated from sheep placenta, purity 70%; Cayman Chemical Company) were used.

Another assay concerns the target T2, 5-LO (Rattus norvegicus, UniProt P12527).
T2 construct: RBL-1 cell homogenate (1.5 × 10^7 cells); endogenous in cells; host or cells: RBL-1 (rat basophilic leukemia-1) cell homogenate
T2 sequence (P12527 1-673): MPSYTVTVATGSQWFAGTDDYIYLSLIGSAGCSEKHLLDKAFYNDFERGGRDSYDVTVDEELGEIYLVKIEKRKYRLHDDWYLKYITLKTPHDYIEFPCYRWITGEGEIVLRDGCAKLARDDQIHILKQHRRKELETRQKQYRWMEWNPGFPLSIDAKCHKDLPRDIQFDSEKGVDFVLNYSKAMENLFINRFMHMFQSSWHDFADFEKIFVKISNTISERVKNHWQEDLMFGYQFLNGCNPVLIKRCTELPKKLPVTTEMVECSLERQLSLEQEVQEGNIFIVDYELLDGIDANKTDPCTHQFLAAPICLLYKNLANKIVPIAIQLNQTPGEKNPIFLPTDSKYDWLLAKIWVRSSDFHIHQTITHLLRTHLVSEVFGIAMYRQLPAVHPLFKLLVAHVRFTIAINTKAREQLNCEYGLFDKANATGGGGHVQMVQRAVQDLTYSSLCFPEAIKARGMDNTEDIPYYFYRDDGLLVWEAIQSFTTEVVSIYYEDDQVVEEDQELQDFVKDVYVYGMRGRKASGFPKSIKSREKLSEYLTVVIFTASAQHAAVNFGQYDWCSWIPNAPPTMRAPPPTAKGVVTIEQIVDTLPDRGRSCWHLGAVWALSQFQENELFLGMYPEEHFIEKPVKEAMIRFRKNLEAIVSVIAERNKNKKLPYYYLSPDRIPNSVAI
The assay can be described thus: Measurement of RBL-1 5-lipoxygenase activity. Particulars: RBL-1 cell homogenate; for IC50: triplicate five-point titration; for inhibition at 10 µg/mL: 10 μg/mL. In kind it is biochemical. The procedure:
The modified method of Blackman et al. was used. Rat basophilic leukemia-1 (RBL-1) cells were grown in RPMI-1640 medium containing 10% heat-inactivated newborn calf serum (NCS), penicillin 100 units/mL, and streptomycin […]. Cells were cultured at 37 °C in 5% CO2. The assay system (0.5 mL) consisted of 50 mM phosphate buffer (pH 7.4), the test compound, 2 mM CaCl2, 0.66 mM arachidonic acid, and RBL-1 cell homogenate (1.5 × 10^7 cells). Reaction mixtures were incubated at 37 °C for 3 min, and then MeOH (0.5 mL) was added to terminate the reaction. The mixture was centrifuged to remove the precipitated proteins, 5-HETE in the supernatant was analyzed by HPLC. The mixture was eluted through a Cosmosil 5C18 column (4.6 × 150 mm) at room temperature with 85% CH3CN at 235 nm.

Another assay deals with T3, COX-1 (Ovis aries, UniProt P05979).
T3 construct: isolated from ram seminal vesicles; purchased Cayman Chemical Company; host or cells: ram seminal vesicles (tissue isolate)
T3 sequence (P05979 25-600): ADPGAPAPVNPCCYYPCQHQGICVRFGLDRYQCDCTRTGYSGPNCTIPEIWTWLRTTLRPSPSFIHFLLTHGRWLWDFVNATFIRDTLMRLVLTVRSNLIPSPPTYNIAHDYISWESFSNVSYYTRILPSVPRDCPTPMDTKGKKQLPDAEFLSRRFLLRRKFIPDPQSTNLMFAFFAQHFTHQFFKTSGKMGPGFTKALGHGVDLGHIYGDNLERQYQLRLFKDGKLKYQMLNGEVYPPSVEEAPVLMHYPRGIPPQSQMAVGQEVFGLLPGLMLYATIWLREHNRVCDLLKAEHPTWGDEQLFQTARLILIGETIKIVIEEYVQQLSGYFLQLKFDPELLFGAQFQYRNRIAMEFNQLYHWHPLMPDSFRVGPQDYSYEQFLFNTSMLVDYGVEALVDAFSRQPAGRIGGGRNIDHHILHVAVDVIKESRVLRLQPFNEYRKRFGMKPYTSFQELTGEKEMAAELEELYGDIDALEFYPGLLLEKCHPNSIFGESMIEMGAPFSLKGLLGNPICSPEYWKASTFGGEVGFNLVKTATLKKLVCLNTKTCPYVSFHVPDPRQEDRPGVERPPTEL
In words: COX-1-catalyzed prostaglandin biosynthesis assay in vitro. It is filed as biochemical, ram. Conditions: for inhibition at 10 µg/mL: 10 μg/mL, COX-1 from ram seminal vesicles; for IC50: triplicate five-point titration. The protocol: as §1

As a reminder, the IC50 is the point on the concentration scale where inhibition reaches its midpoint. The low end stands for greater potency in that assay, the high end for weaker potency in that assay. On to `C[C@]12c3c(ccc(O)c3C=C3C(CO)=CC(=O)[C@@H]31)O[C@@H]2O` [Compound 1], for which the “inhibitory activities against COX-2 (in words)” value against COX-2 is recorded as “not apparent”. This compound also yielded an IC50 against 5-LO of 15.1 µM.
As usually defined, the inhibition is the relative decrease from the control value, in per cent. On to `C=C1CC[C@H]2[C@](C)(COC(C)=O)CCC[C@]2(C)[C@H]1CO[C@@H](C(=O)OC)[C@H](CC(=O)O)C(=O)OC` [Compound 4, Cryptoporic acid Q], for which the inhibition at 10 µg/mL against COX-1 was determined as 66.5%; against COX-2 it was 10.3%; at 5-LO, 50.1%. Also, the figures for the half-inhibitory concentration (IC50) against COX-1 and at 5-LO were 78.8 µM and 204 µM, respectively.
The like results for `CC(C)O[C@H]1Oc2ccc(O)c3c2[C@@]1(C)[C@H]1C(=O)C=C(CO)C1=C3` [Compound 1a, 5-hydroxy-7-hydroxymethyl-1-isopropoxy-9b-methyl-9a,9b-dihydro-H-2-oxa-cyclopenta[d]acenaphthylen-9-one] were, in that order, 90.5%, 7.5%, 84.7%, 47.7 µM and 15.1 µM.
On to `C=C1CC[C@H]2[C@](C)(COC(C)=O)CCC[C@]2(C)[C@H]1CO[C@@H](C(=O)O)[C@H](CC(=O)O)C(=O)OC` [Compound 3, Cryptoporic acid P], for which the results for the inhibition at 10 µg/mL on COX-1, against COX-2 and against 5-LO were 40.2%, 1.7% and 14.9%, respectively.
As to `C=C1CC[C@H]2[C@](C)(CO)CCC[C@]2(C)[C@H]1CO[C@@H](C(=O)O)[C@H](CC(=O)O)C(=O)OC` [Compound 6, cryptoporic acid N], the inhibition at 10 µg/mL against COX-1 stood at 35.8%; at COX-2, 19%; against 5-LO, 28.9%.
